# Active and inactive are the calls of the source. The rule behind the calls is not given here.
# Target: transactivating tegument protein VP16 (Human herpesvirus 1), as a GAL4-VP16 activation-domain luciferase reporter
# Test: GAL4-VP16 reporter repression curves – cell-based, luminescence, high throughput, SRC3 series, counter-screen for SRC3 inhibitor project, dose response (AID 602167)
# Conditions: VP16 transactivation luciferase reporter cells
row,Compound,IC50
1,O=C(NCCCn1ccnc1)c1ccc(N2CCCCCC2)c([N+](=O)[O-])c1,inactive
2,CCC(=O)c1ccc(O)c(CC=C(C)C)c1,9.84 µM
3,Cc1cc(-c2nnc(SCC(=O)Nc3ccccc3C(F)(F)F)o2)c(C)n1-c1ccccc1,> 35.9 µM (inactive)
4,O=C(CNc1cccc([N+](=O)[O-])c1)N/N=C/c1ccc([N+](=O)[O-])o1,inactive
5,CCCC(=O)NC(c1ccc(Cl)cc1Cl)c1ccc2cccnc2c1O (configuration not stated),4.42 µM
6,C=CCn1c(O)c(C(C)=NCc2cc(OC)cc(OC)c2)c(=O)[nH]c1=O,inactive
7,CCCc1c(C)nc2ccccc2c1SCCC#N,inactive
8,O=C(COC(=O)c1ccc[nH]c1=O)Nc1ccc(N2CCCCC2)cc1,> 35.9 µM (inactive)
9,CCCNC(=O)c1nnsc1S(=O)(=O)c1ccc(Cl)cc1,inactive
10,O=[N+]([O-])c1cccc2c1ccc1ncccc12,inactive
11,COc1cccc(NC(=O)CSc2nnc(-c3cc(C)n(-c4ccccc4)c3C)o2)c1,2.4 µM
12,Cc1sc2ncnc(N3CCC(C(=O)Nc4ccccc4C(C)(C)C)CC3)c2c1C,8.88 µM
13,CN1C(=O)C2(C(C#N)=C(N)N(c3cc(Cl)cc(Cl)c3)C3=C2C(=O)CCC3)c2ccccc21 (configuration not stated),inactive
14,CC(C)N(c1ccccc1)c1ccc(NC(=O)CCl)cc1,inactive
15,Cc1nnc(SC(=O)N2c3ccccc3Sc3ccccc32)s1,7.54 µM
16,c1csc(Cc2nn3c(-c4ccncc4)nnc3s2)c1,inactive
17,COC(CN(C(=O)CCl)C(C(=O)NC1CCCCC1)c1ccccc1C)OC (configuration not stated),7.26 µM
18,CCCCN1C=CC(=C2C(=O)c3ccccc3C2=O)C=C1,5.59 µM
19,c1cc2[nH]snc2c2nc(C3CC3)nc12,4.83 µM

row,Compound,IC50
1,Nc1nc(=S)c2ncn([C@@H]3O[C@H](CO)[C@@H](O)[C@H]3O)c2[nH]1,3.37 µM
2,CC(C)(C)C(=O)Nc1ccc(N=Nc2ccccc2)cc1,> 35.9 µM (inactive)
3,COc1cccc(CNc2ncnc3ccc(-c4c(C)noc4C)cc23)c1,> 35.9 µM (inactive)
4,COc1ccc(-c2cn[nH]c2-c2ccc(OC)cc2O)cc1,6.04 µM
5,CN(C)S(=O)(=O)c1ccc(N2CCN(S(=O)(=O)c3ccc(F)cc3)CC2)c(Cl)c1,9.39 µM
6,CCOc1cc(C(N)=O)cc(Br)c1OC,> 35.9 µM (inactive)
7,O=C(Nc1nc2cc3c(cc2s1)OCCO3)C1=COCCO1,7.78 µM
8,Fc1ccc(CSc2nnc(-c3ccncc3)o2)cc1,3.81 µM
9,CCN(C(C)=O)c1cnc(C=NNC(N)=S)c2ccccc12,4.4 µM
10,Cc1cc(C(=O)COC(=O)C2=COCCO2)c(C)n1-c1ccccc1,> 12 µM (inactive)
11,Cc1ccc(N=c2c([N+](=O)[O-])nn(-c3ccc4c(c3)OCCO4)n2O)cc1F,inactive
12,C[C@@H](C(=O)Nc1ccc2c(c1)OCCO2)n1c(=O)[nH]c2ccccc2c1=O,inactive
13,O=C(Nc1cccc(C(F)(F)F)c1)Nc1nnc([C@@H]2C[C@H](O)[C@@H](CO)O2)s1,6.98 µM
14,CC[C@@]1(O)C(=O)OCc2c1cc1n(c2=O)Cc2cc3c(NC(=O)CN)cccc3nc2-1,> 35.9 µM (inactive)
15,C(=NNc1ccc2ccccc2n1)c1ccccn1,inactive
16,Cc1ccc(-n2c(Cl)c(Cl)nc(Cl)c2=O)cc1,4.07 µM
17,Cc1ccc(N=Nc2ccc3ccccc3c2O)cc1,inactive
18,CCn1c2ccccc2c2cnc(N=CN(C)C)c(C#N)c21,inactive

# — PubChem BioAssay AID602167 (The Scripps Research Institute Molecular Screening Center, 2012)
